From US5614504A, “Method of making inosine monophosphate derivatives and immunopotentiating uses thereof” (The University of South Florida, priority 1995, dated 1997)

Experiments:
[1] = in vitro; type: in vitro ADME, Crotalus atrox; details: rattlesnake, pH 7.3; 0.02 units 5'-nucleotidase, 37° C., 10 minutes; four experiments; read-out: Hydrolysis (%)
Method: Nucleotide samples (40-60 nmoles) were incubated at 37° C. for 10 minutes with 0.02 units 5'-nucleotidase in a total volume of 100 μl containing […] HEPES, pH 7.3 and […] MgCl2. […] Phosphate was determined by the absorbance of 820 nm. Blanks consisting of nucleotide but no enzyme were tested in parallel to correct for non-enzymatic hydrolysis.

[2] = tested on: CD4+ lymphocytes; experiment: PHA response of CD4+ enriched human lymphocytes; type: cell-based; details: MIMP 1-200 μg/ml, 3 donors, p <0.01
Description: (§1) Human CD4+ and CD8+ lymphocyte subsets were obtained from normal controls using commercial panning techniques (Applied Immune Sciences, Santa Clara, Calif.).
(§2) Human peripheral blood lymphocytes are on average approximately 80% T lymphocytes and 20% B lymphocytes and of the T lymphocytes, 2/3 are of the CD4+ helper/inducer phenotype and 1/3 are the CD8+ suppressor/cytotoxic phenotype. Enrichment of CD4+ T cells or CD8+ T cells can be achieved through reduction of the other phenotype (>98%) removal using adherence to monoclonal antibody-coated flasks (panning).

[3] = tested on: CD8+ lymphocytes; experiment: PHA response of CD8+ enriched human lymphocytes; type: cell-based; details: MIMP 1-200 μg/ml, 3 donors, p <0.01
Description: as §1, §2

[4] = tested on: spleen lymphocytes; experiment: In vitro response to mitogens following in vivo oral administration; set-up: species or system mice; details: oral Me-IMP for five days, 0-100 mg/kg
Method: In vivo: Compounds were administered orally, by garage, or intraperitoneally. At termination, spleens were obtained as described in Florentin et al. (1982) and cells were prepared for proliferative response with Con A=0.5 μg/ml, PHA=0.5 μg/ml or LPS=0.5 μg/ml.
Spleen lymphocytes were obtained from mice that had been orally administered Me-IMP for five days, range of 0-100 mg/kg body weight, and then sacrificed. The spleen lymphocytes were incubated with PHA (0.5 μg/ml) or Con A (0.5 μg/ml) for 48 hours. Cultures were pulsed with tritiated thymidine for the last 18 hours.

[5] = Acute toxicity (LD50); details: in vivo
[6] = tested on: delayed-type hypersensitivity response; experiment: Delayed-type hypersensitivity in vivo (footpad swelling, SRBC); set-up: species or system mice
Method: Mice were immunized by intraperitoneal administration of SRBC in graded doses of from 10^6 to 10^9 cells. […] A dose of 10^7 was chosen to immunize animals in this study.
Four days following immunization, each mouse was challenged by injecting the left hind footpad subcutaneously with 10^8 SRBC in 50 μl phosphate buffered saline (PBS). Vehicle (50 μl PBS) was injected subcutaneously into the right hind footpad as a control. The compounds being tested were injected intraperitoneally either at the time of immunization or at the time of elicitation. After 24 hours of challenge, footpad swelling was measured as the increase in footpad thickness (left minus right) using Engineer's calipers.
The results are expressed as increments of footpad thickness in 0.1 mmunits. The characteristics of delayed-type hypersensitivity measured in this way have been described previously in MacDonald et al. (1979). FIGS. 13 and 14 show the results of this testing.

[7] = tested on: L. monocytogenes EGD; experiment: Listeria infection mortality; type: in vivo, BALB/c mice; details: for Mortality: Dead/Total: 1 dose, Day -5, day 4
[8] = tested on: IL-2; experiment: PHA-induced IL-2 production; type: cell-based; details: preliminary data

Question: Which metabolised at 10 min [1] does the source give for COP(=O)(O)OC[C@H]1O[C@@H](n2cnc3c(=O)[nH]cnc32)[C@H](O)[C@@H]1O [Me-IMP, Methyl-5'-inosine-monophosphate] here?
Answer: 2.1%

Question: And the “PHA response of CD4+ lymphocytes” value [2]?
Answer: significantly augmented

Question: And the “PHA response of CD8+ lymphocytes” value [3]?
Answer: significantly augmented

Question: What about the “Con A response of spleen lymphocytes” value [4] of the same molecule?
Answer: stimulated

Question: What about the “PHA response of spleen lymphocytes” value [4] of the same molecule?
Answer: stimulated

Question: What about the LD50 ([5]; ip, intraperitoneally) of the same molecule?
Answer: > 500 mg/kg

Question: What about the LD50 ([5]; po, orally) of the same molecule?
Answer: > 5000 mg/kg

Question: What about the delayed-type hypersensitivity response ([6]; one dose i.p. at the time of challenge) of the same molecule?
Answer: not significant

Question: And the delayed-type hypersensitivity response ([6]; one dose i.p. at the time of immunization)?
Answer: significantly stimulated

Question: And the MST and survivors ([7]; 0.1 to 10 mg/kg, combined i.p. and p.o. from five days prior to challenge)?
Answer: increased MST and survivors

Question: What about the “mean survival time (MST) and absolute number of survivors” value ([7]; by mouth and at 1 and 10 mg/kg by i.p. injection, five days prior to challenge) of the same molecule?
Answer: increased mean survival time (MST) and the absolute number of survivors

Question: What about the “Mortality: Dead/Total” value ([7]; scheme N1 2: MIMP 1.0 per os) of the same molecule?
Answer: 2/3

Question: And the “Mortality: Dead/Total” value ([7]; scheme N1 3: MIMP 10.0 per os)?
Answer: 1/8

Question: And the “effect on PHA-induced IL-2” value [8]?
Answer: only a small effect
